Data set [1] has as its target Replicase polyprotein 1a (Severe acute respiratory syndrome-related coronavirus, UniProt P0C6U8). Description: Inhibition of SARS coronavirus 3CLpro.
The target in data set [2] is T1, Cytochrome P450 1A2 (Homo sapiens, UniProt P05177).
T1 sequence (P05177 whole entry): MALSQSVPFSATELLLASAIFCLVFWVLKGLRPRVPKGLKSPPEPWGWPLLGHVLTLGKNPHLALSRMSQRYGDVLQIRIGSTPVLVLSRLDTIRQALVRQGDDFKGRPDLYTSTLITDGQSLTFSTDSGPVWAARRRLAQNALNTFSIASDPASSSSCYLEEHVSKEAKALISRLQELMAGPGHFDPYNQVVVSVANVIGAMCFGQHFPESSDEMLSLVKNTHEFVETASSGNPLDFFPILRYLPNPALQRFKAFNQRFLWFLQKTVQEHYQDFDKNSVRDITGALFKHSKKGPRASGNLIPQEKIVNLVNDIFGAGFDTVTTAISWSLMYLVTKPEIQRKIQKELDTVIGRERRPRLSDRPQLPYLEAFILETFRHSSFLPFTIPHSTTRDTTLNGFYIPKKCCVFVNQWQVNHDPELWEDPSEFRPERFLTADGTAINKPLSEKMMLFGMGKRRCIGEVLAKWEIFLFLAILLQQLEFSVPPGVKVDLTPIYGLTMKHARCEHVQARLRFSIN
Description: Inhibition of CYP1A2 (unknown origin). The class given is ADME.

In data set [3] the target is Cytochrome P450 2C9 (Homo sapiens, UniProt P11712). Nature of the data set: Inhibition of CYP2C9 (unknown origin). The class given is ADME.
Sequence of Cytochrome P450 2C9 (P11712 whole entry): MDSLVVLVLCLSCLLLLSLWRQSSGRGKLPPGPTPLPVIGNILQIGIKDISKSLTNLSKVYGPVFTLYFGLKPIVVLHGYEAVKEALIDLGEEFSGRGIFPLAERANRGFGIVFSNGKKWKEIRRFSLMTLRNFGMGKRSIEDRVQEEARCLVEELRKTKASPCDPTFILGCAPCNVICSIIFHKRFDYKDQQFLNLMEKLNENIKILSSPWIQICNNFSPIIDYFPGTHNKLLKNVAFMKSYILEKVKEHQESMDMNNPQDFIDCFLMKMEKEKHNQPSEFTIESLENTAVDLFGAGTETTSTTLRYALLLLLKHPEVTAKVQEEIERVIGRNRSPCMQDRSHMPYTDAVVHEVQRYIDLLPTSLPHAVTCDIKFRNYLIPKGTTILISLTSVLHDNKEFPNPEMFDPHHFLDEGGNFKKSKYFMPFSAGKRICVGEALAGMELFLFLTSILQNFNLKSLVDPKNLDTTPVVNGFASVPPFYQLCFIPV
Data set [4] concerns the target Cytochrome P450 2D6 (Homo sapiens, UniProt P10635). Description: Inhibition of CYP2D6 (unknown origin). It is filed as ADME.
Data set [5] can be described thus: Inhibition of SARS coronavirus PLpro. Set-up: species or system Severe acute respiratory syndrome-related coronavirus.
In data set [6] the target is Replicase polyprotein 1a (Severe acute respiratory syndrome-related coronavirus) (UniProt P0C6U8). Description: Inhibition of SARS coronavirus 3CLpro at 100 uM.

Each structure is given as a SMILES string.

Sequence of Cytochrome P450 2D6 (P10635 whole entry): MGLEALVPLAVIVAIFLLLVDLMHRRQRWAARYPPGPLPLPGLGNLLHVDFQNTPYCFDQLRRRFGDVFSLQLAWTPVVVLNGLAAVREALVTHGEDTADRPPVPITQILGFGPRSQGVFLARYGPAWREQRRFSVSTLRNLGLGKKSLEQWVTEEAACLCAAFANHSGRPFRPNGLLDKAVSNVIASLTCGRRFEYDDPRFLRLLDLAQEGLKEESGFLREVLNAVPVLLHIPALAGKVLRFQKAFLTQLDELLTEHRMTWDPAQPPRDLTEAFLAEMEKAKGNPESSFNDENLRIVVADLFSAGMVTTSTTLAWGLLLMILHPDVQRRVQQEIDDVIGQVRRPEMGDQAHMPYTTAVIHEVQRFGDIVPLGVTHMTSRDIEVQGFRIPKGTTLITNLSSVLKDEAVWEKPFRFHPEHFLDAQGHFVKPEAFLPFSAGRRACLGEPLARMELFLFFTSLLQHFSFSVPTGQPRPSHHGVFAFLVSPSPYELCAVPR

Consider `CC(C)COC(=O)Nc1ccc(N(C(=O)Cn2nnc3ccccc32)C(C(=O)NC(C)(C)C)c2ccsc2)cc1` (configuration not stated), for which the half-inhibitory concentration (IC50) entry in data set [1] is recorded as “Not Active”.
For `CC(C)(C)NC(=O)[C@@H](c1cccnc1)N(C(=O)c1ccco1)c1ccc(C(C)(C)C)cc1`, the INH was above 30 µM in data set [2], 9.1 µM in data set [3] and above 30 µM in data set [4].
Regarding `O=C(Nc1ccc(N(Cc2ccsc2)C(=O)Cn2nnc3ccccc32)cc1)C1CC1`, the INH in data set [2] worked out at 7.7 µM; in data set [3], 7.2 µM; in data set [4], 8.4 µM.
As to `CCC(C)(C)NC(=O)[C@@H](c1ccn(C)c1)N(C(=O)Cn1nnc2ccccc21)c1ccc(NC(C)=O)cc1`, the figures for the 50% inhibitory concentration (IC50) in data set [5] and in data set [1] (read-out: IC50) were above 60 µM and 6.2 µM, respectively.
As to `O=C(Cn1nnc2ccccc21)N(Cc1ccsc1)c1ccc(-c2ccncc2)cc1`, the 50% inhibitory concentration (IC50) in data set [1] (read-out: IC50) was 2 µM.
`COc1ncccc1-c1ccc(N(Cc2ccsc2)C(=O)Cn2nnc3ccccc32)cc1`: the IC50 in data set [1] (read-out: IC50) was found to be 0.7 µM.
For `O=C(Nc1ccc(N(Cc2ccsc2)C(=O)Cn2nnc3ccccc32)cc1)c1ccccc1`, the inhibition in data set [6] was found to be 18%.

The IC50 is the midpoint of a concentration-inhibition curve. For orientation: inhibition means the percentage by which the read-out fell short of the control. A high value points to a strong effect.

These data come from ChEMBL document CHEMBL2439951, “Discovery of N-(benzo[1,2,3]triazol-1-yl)-N-(benzyl)acetamido)phenyl) carboxamides as severe acute respiratory syndrome coronavirus (SARS-CoV) 3CLpro inhibitors: identification of ML300 and noncovalent nanomolar inhibitors with an induced-fit binding” (Bioorg Med Chem Lett, 2013).
